{
  "source": "patent US5506102A",
  "about": "(priority 1993, dated 1996)",
  "key": {"PR-B": {"biological_target": "T1, PR-B (Homo sapiens, UniProt P06401)", "T1 sequence (P06401 1-933)": "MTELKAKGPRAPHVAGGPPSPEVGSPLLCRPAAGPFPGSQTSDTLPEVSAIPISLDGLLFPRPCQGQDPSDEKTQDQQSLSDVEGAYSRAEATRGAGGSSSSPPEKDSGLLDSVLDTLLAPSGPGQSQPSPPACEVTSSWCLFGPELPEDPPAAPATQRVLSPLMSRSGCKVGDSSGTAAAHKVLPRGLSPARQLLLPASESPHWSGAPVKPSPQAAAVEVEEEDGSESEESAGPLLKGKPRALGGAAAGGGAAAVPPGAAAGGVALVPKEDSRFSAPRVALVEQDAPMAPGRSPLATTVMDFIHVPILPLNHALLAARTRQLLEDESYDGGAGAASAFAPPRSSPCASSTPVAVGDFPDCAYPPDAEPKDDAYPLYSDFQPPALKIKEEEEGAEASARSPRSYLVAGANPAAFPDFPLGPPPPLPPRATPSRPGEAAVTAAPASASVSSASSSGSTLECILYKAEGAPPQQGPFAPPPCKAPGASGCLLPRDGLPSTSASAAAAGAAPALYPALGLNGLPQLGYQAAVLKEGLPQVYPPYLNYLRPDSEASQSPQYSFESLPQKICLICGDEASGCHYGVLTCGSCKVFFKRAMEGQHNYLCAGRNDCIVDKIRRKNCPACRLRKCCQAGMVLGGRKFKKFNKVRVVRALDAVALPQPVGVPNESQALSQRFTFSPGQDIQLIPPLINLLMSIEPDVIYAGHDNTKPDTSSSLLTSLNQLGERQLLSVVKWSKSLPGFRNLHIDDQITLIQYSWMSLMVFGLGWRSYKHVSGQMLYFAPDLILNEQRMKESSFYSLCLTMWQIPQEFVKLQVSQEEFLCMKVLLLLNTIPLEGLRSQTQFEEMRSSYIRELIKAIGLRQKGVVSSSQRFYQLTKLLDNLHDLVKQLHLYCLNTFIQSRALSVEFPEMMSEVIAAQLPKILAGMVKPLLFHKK", "test": "Direct inhibition of PR-B transcriptional activity, CV-1 cells", "assay_type": "cell-based", "set-up": "expressed in transfected cells; host or cells: CV-1, HepG2 (PRE2 tk-LUC); HeLa, also HepG2 and CV-1 (TAT promoter)", "conditions": "read-out: IC50 (50% maximal Inhibitory concentration), transcriptional activity of PR-B; in the presence of 10^-8 progesterone"}, "human androgen receptor": {"biological_target": "T2, human androgen receptor (Homo sapiens, UniProt P10275)", "T2 sequence (P10275 1-920)": "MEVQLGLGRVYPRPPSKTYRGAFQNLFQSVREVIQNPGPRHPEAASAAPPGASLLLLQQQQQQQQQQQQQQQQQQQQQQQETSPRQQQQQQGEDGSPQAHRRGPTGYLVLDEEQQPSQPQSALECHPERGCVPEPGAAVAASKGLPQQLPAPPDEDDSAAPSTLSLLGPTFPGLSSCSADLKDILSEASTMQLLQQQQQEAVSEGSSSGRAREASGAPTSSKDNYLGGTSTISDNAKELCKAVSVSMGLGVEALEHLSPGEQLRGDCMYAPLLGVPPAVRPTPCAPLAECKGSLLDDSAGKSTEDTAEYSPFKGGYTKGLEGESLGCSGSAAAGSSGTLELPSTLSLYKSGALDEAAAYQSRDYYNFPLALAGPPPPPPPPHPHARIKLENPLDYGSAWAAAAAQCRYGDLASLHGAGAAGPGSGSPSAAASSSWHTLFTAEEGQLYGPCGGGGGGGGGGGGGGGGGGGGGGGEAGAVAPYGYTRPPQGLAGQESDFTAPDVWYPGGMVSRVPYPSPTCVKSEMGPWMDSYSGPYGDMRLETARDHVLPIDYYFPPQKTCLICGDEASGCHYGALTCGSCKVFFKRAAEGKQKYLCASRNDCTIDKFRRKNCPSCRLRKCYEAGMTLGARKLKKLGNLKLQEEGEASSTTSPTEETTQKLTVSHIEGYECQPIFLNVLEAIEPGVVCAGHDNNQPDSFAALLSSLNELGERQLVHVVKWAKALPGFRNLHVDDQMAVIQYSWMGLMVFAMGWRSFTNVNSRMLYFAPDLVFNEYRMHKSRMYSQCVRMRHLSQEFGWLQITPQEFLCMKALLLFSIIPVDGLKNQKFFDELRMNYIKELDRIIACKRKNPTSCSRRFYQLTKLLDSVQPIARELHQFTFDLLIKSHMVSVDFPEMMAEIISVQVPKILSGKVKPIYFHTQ", "test": "AR transcriptional activity on MMTV-LUC, CV-1 cells, AR co-expressed with PR-A", "assay_type": "cell-based", "conditions": "AR plus PR-A, FIG. 10B", "protocol": "FIGS. 10A-10B are a series of graphs showing CV-1 cells that were transiently transfected with an expression vector for the human androgen receptor (pRShAR) alone, or in combination with phPR-A together with 5 µg/ml of the MMTV-LUC reporter and 5 µg/ml of pCH110 as an internal control. […] The relative luciferase activity is calculated by dividing the normalized luciferase value at a given point by that obtained in the absence of transfected receptor or ligand. […] The data are presented as percent (%) activation, where 100% represents the maximal induction achieved by human androgen receptor at 10^ -8 M DHT. The experimental data represents mean values +/- the average deviation from the mean of quadruplicate estimations;\nCells were seeded in 12-well, 96-well or 10 cm tissue culture plates. […] 20 μg of DNA/ml of transfection buffer were used in each transfection reaction. In this mix, the concentration of the luciferase plasmids and that of the internal control plasmid pCH110 (Pharmacia, Inc.), which contains the gene for the β-galactosidase enzyme, remained constant ([…] of each plasmid DNA), while the receptor plasmid concentration varied as indicated for each experiment. […]"}},
  "data": [
    {"compound": "CC#C[C@]1(O)CC[C@H]2[C@@H]3CCC4=CC(=O)CCC4=C3[C@@H](c3ccc(C(C)=O)cc3)C[C@@]21C", "note": "[ZK112993]", "values": [
      {"measurement": "IC50", "setting": "PR-B", "result": 0.6, "unit": "nM"},
      {"measurement": "effect on DHT-induced AR activity in the presence of PR-A", "setting": "human androgen receptor", "result": "increased by the introduction of PR-A"}
    ]}
  ]
}
